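Step 1: Grow cells in 96-well plates. Step 2: Expose to compound for 48 hours at 5 concentrations. Step 3: Interpolate endpoints linearly; if unreached, use highest concentration. GI50 = concentration required for 50% inhibition of growth.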 Calls of active or inactive are those of the source. Cut-off read from the data, not from the text of the source: active = GI50 up to about 1.1 µM and inactive = higher.
What was measured:
Assay in all cases: DTP human tumour cell line panel, 48 h
BT-549 = tested on: BT-549
NCI-H226 = tested on: NCI-H226
TK-10 = tested on: TK-10
UACC-257 = tested on: UACC-257
SF-295 = tested on: SF-295
SN12C = tested on: SN12C
HCT-15 = tested on: HCT-15
SR = tested on: SR
A498 = tested on: A498
NCI-H522 = tested on: NCI-H522
DU-145 = tested on: DU-145
MCF7 = tested on: MCF7
RXF 393 = tested on: RXF 393
LOX IMVI = tested on: LOX IMVI
OVCAR-8 = tested on: OVCAR-8
MOLT-4 = tested on: MOLT-4
M14 = tested on: M14
HL-60 = tested on: HL-60
Malme-3M = tested on: Malme-3M
SNB-75 = tested on: SNB-75

SMILES | GI50 (BT-549) | GI50 (NCI-H226) | GI50 (TK-10) | GI50 (UACC-257) | GI50 (SF-295) | GI50 (SN12C) | GI50 (HCT-15) [µM] | GI50 (SR) | GI50 (A498) | GI50 (NCI-H522) | GI50 (DU-145) | GI50 (MCF7) | GI50 (RXF 393) | GI50 (LOX IMVI) | GI50 (OVCAR-8) | GI50 (MOLT-4) | GI50 (M14) | GI50 (HL-60) | GI50 (Malme-3M) | GI50 (SNB-75)
CCC1c2[nH]c3ccccc3c2C[C@H]2C(=O)NC(Cc3c[nH]c4ccccc34)C(=O)N12 (some centres undefined) | 22.6 µM (inactive) | 32.7 µM (inactive) | 23.2 µM (inactive) | 19.4 µM (inactive) | 17.3 µM (inactive) | 22.5 µM (inactive) | 28.5 | 16.9 µM (inactive) | 30.5 µM (inactive) | 22.6 µM (inactive) | 37.7 µM (inactive) | 27.3 µM (inactive) | 17.4 µM (inactive) | 22.1 µM (inactive) | 32.7 µM (inactive) | 15.9 µM (inactive) | 21.5 µM (inactive) | 19.2 µM (inactive) | 18.4 µM (inactive) | –
Cc1ccc(C)c(NC(=O)NCc2ccc(Cl)cc2)c1 | > 100 µM (inactive) | 38.2 µM (inactive) | 20.5 µM (inactive) | 39.7 µM (inactive) | 16.7 µM (inactive) | 36.3 µM (inactive) | > 100 | 13.8 µM (inactive) | 20.8 µM (inactive) | 24.9 µM (inactive) | > 66.7 µM (inactive) | 50.2 µM (inactive) | 8.89 µM (inactive) | > 100 µM (inactive) | 34.9 µM (inactive) | – | 52.5 µM (inactive) | > 100 µM (inactive) | 26.8 µM (inactive) | 2.24 µM (inactive)
C=CCn1c2c(c3ccccc3c1=O)C(=O)c1ccccc1-2 | > 100 µM (inactive) | > 100 µM (inactive) | > 50.6 µM (inactive) | > 100 µM (inactive) | > 77.8 µM (inactive) | > 100 µM (inactive) | > 100 | 3.97 µM (inactive) | > 100 µM (inactive) | > 100 µM (inactive) | > 89.3 µM (inactive) | > 100 µM (inactive) | 15.9 µM (inactive) | > 100 µM (inactive) | > 88.9 µM (inactive) | 3.4 µM (inactive) | > 100 µM (inactive) | 3.41 µM (inactive) | > 100 µM (inactive) | > 81.5 µM (inactive)
C=CCNC1=C2C[C@@H](C)C[C@@H](OC)[C@@H](OC(=O)CCCN)[C@H](C)/C=C(\C)[C@@H](OC(N)=O)[C@H](OC)/C=C\C=C(/C)C(=O)NC(=CC1=O)C2=O | 8.99 µM (inactive) | 17.1 µM (inactive) | 16.7 µM (inactive) | 15.1 µM (inactive) | 15.9 µM (inactive) | 17.4 µM (inactive) | 19.4 | 6.59 µM (inactive) | 20.5 µM (inactive) | 6.82 µM (inactive) | 13.8 µM (inactive) | 6.98 µM (inactive) | 20 µM (inactive) | 5.45 µM (inactive) | 19.4 µM (inactive) | 14 µM (inactive) | 9.38 µM (inactive) | 4.43 µM (inactive) | 11.4 µM (inactive) | 10.4 µM (inactive)
CCOC(=O)CSc1nnc2cc(CN3CCCC3)c(-c3ccc(Cl)cc3)nn12 | > 100 µM (inactive) | > 100 µM (inactive) | > 100 µM (inactive) | 91.4 µM (inactive) | > 100 µM (inactive) | > 100 µM (inactive) | > 100 | 41 µM (inactive) | > 100 µM (inactive) | 39.7 µM (inactive) | 71.6 µM (inactive) | 46.9 µM (inactive) | 86.5 µM (inactive) | > 100 µM (inactive) | > 100 µM (inactive) | 38.5 µM (inactive) | > 100 µM (inactive) | 89.3 µM (inactive) | > 100 µM (inactive) | 85.5 µM (inactive)
COc1cccc2c1C(=O)C1=C(C2=O)C(O)CC(C)(C)O1 (centres undefined) | 63.7 µM (inactive) | > 100 µM (inactive) | > 100 µM (inactive) | 22.4 µM (inactive) | 70.3 µM (inactive) | 32.5 µM (inactive) | 38.6 | 16.3 µM (inactive) | > 100 µM (inactive) | 26.2 µM (inactive) | > 100 µM (inactive) | 36.6 µM (inactive) | 71 µM (inactive) | 24.3 µM (inactive) | 27.7 µM (inactive) | 29 µM (inactive) | 54.6 µM (inactive) | 11.7 µM (inactive) | 16.6 µM (inactive) | > 100 µM (inactive)
COC(=O)c1cc(C)ccc1/C=C1\Cc2c(C)cc(C)cc2C1=O | 36.5 µM (inactive) | 35.4 µM (inactive) | 17.9 µM (inactive) | > 18.3 µM (inactive) | 3.61 µM (inactive) | 69 µM (inactive) | > 100 | 20 µM (inactive) | 30.8 µM (inactive) | 21.3 µM (inactive) | > 100 µM (inactive) | > 100 µM (inactive) | 16.1 µM (inactive) | > 30.7 µM (inactive) | 47 µM (inactive) | > 100 µM (inactive) | 17.3 µM (inactive) | 21.9 µM (inactive) | > 63.4 µM (inactive) | 16.2 µM (inactive)
NCCCC(N)C(=O)O (centres undefined) | > 100 µM (inactive) | 77.8 µM (inactive) | > 100 µM (inactive) | > 100 µM (inactive) | > 100 µM (inactive) | > 100 µM (inactive) | > 100 | > 100 µM (inactive) | > 100 µM (inactive) | > 100 µM (inactive) | > 100 µM (inactive) | > 100 µM (inactive) | > 100 µM (inactive) | > 100 µM (inactive) | > 100 µM (inactive) | > 100 µM (inactive) | > 100 µM (inactive) | > 100 µM (inactive) | > 100 µM (inactive) | > 100 µM (inactive)
Cc1c(/C=N/NC(=S)N2CCCCC2)c(=O)n(-c2ccccc2)n1C | > 100 µM (inactive) | > 100 µM (inactive) | 61.2 µM (inactive) | > 100 µM (inactive) | 40.7 µM (inactive) | – | 23.1 | > 100 µM (inactive) | 24.3 µM (inactive) | 39.1 µM (inactive) | > 100 µM (inactive) | 43.9 µM (inactive) | 26.5 µM (inactive) | 70.5 µM (inactive) | 42.8 µM (inactive) | 31.3 µM (inactive) | 61.9 µM (inactive) | 14 µM (inactive) | 54.1 µM (inactive) | > 100 µM (inactive)
CN(/N=C\c1ccc2ccccc2c1)C1=NCCCN1 | 1.87 µM (inactive) | 17 µM (inactive) | 14 µM (inactive) | 10.4 µM (inactive) | 11.9 µM (inactive) | – | 17.7 | 13.1 µM (inactive) | 13.6 µM (inactive) | 13.8 µM (inactive) | 27.4 µM (inactive) | 3.56 µM (inactive) | 14.3 µM (inactive) | 7.41 µM (inactive) | 15.4 µM (inactive) | 2.39 µM (inactive) | – | 8.71 µM (inactive) | 13.3 µM (inactive) | 13.3 µM (inactive)
[N-]=[N+]=NCC1OC(n2cnc3c(N)ncnc32)C2OC12 (centres undefined) | > 100 µM (inactive) | > 100 µM (inactive) | > 100 µM (inactive) | > 100 µM (inactive) | > 100 µM (inactive) | > 100 µM (inactive) | > 100 | > 100 µM (inactive) | > 100 µM (inactive) | > 100 µM (inactive) | > 100 µM (inactive) | > 100 µM (inactive) | > 100 µM (inactive) | > 100 µM (inactive) | > 100 µM (inactive) | > 100 µM (inactive) | > 100 µM (inactive) | > 100 µM (inactive) | > 100 µM (inactive) | > 100 µM (inactive)
CC1=[N+](C)CCCN1C | > 100 µM (inactive) | > 100 µM (inactive) | > 100 µM (inactive) | > 100 µM (inactive) | > 100 µM (inactive) | > 100 µM (inactive) | > 100 | > 100 µM (inactive) | 8.69 µM (inactive) | > 100 µM (inactive) | > 100 µM (inactive) | > 100 µM (inactive) | > 100 µM (inactive) | > 100 µM (inactive) | > 100 µM (inactive) | > 100 µM (inactive) | > 100 µM (inactive) | > 100 µM (inactive) | > 100 µM (inactive) | > 100 µM (inactive)
COc1ccc(-n2c(C)nc3ccc(NC(=S)Nc4ccccc4)cc3c2=O)cc1 | 70 µM (inactive) | 43.2 µM (inactive) | > 100 µM (inactive) | 51.8 µM (inactive) | > 100 µM (inactive) | > 100 µM (inactive) | 76.2 | 60.7 µM (inactive) | > 100 µM (inactive) | 56.8 µM (inactive) | > 100 µM (inactive) | 43.2 µM (inactive) | 57.1 µM (inactive) | 43.7 µM (inactive) | > 100 µM (inactive) | 32.1 µM (inactive) | – | 53.3 µM (inactive) | > 100 µM (inactive) | > 100 µM (inactive)
COc1ccc(/C=C/C(=O)c2ccc(OC(=O)/C=C/c3ccccc3)cc2)cc1 | 14.9 µM (inactive) | 59.3 µM (inactive) | 44.1 µM (inactive) | 37.7 µM (inactive) | 25.1 µM (inactive) | 26.6 µM (inactive) | 15.7 | 2.28 µM (inactive) | 25.1 µM (inactive) | 19.3 µM (inactive) | 11.9 µM (inactive) | 23.6 µM (inactive) | 41.7 µM (inactive) | 16.7 µM (inactive) | 26.7 µM (inactive) | 16.6 µM (inactive) | 59.8 µM (inactive) | 4.08 µM (inactive) | 41 µM (inactive) | 28.9 µM (inactive)

— ChEMBL document CHEMBL1201862, “PubChem BioAssay data set” (2004)
